A word on the pIC50: it is −log10 of the IC50, conventionally taken in molar units.

The target of one test is KRAS-WT (Homo sapiens, UniProt P01116). As to the kind of experiment: SOS-catalyzed nucleotide exchange assay (Procedure A, TR-FRET), KRAS-WT. Format: biochemical. An outline of the steps: (§1)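 Inhibitors stabilizing the Bodipy-GDP state are detected as retained TR-FRET from a preformed biotinylated RAS/Tb-streptavidin complex. They are preincubated 60 min at room temperature, then human SOS and 3 mM GTP are added. G12V runs 90 min at 1.25 nM RAS/160 nM SOS. G12C (3 nM), WT (1 nM) and NRAS (1.25 nM) run 60 min with 40 nM SOS.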
Sequence of KRAS-WT (P01116 with tags, fused parts or gaps isoform P01116-2): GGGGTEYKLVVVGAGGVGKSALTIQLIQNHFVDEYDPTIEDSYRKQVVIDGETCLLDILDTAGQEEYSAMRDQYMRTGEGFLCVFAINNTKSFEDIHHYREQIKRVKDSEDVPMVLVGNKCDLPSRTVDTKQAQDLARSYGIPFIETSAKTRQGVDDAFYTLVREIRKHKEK
(In TR-FRET formats the signal depends on donor and acceptor labels being close together.)

In another test the target is KRAS-G13D (Homo sapiens, UniProt P01116, G13D). Description: SOS-catalyzed nucleotide exchange assay (Procedure A, TR-FRET), KRAS-G13D. Format: biochemical. An excerpt:
(§2) Procedure for SOS-Catalyzed Nucleotide Exchange Assay for KRAS-WT, G12C/D/V, G13D, HRAS, and NRAS (Procedure A)
(§3) Recombinant KRAS-G12C protein used in this assay has an additional triple mutation (C51S/C80L/C118S). Whereas KRAS-WT, G12D/V, G13D, HRAS and NRAS are in context of their WT protein sequence background. Specifically, the SOS-catalyzed nucleotide exchange assay utilizes a preformed TR-FRET complex containing a specific biotinylated RAS protein (KRAS-WT, G12C/V/D, G13D, HRAS, NRAS; described above) with Bodipy-GDP, and Terbium-streptavidin. Compounds are preincubated with this complex for 60 minutes. Subsequently, recombinant human SOS protein and unlabeled GTP are added to initiate the exchange reaction. Small molecule inhibitors stabilize the Bodipy-GDP complex whereas the untreated protein rapidly exchanges Bodipy-GDP for unlabeled GTP resulting in reduced TR-FRET signal.
(§4) To assemble the preformed TR-FRET complexes, each biotinylated RAS protein is diluted to 2 μM in an EDTA Buffer (20 mM HEPES pH 7.5, 50 mM sodium chloride, 10 mM EDTA, and 0.01% Tween) and incubated at room temperature for one hour. This mixture is then further diluted to 90 nM in an Assay Buffer (20 mM HEPES pH 7.5, 150 mM sodium chloride, 10 mM magnesium chloride, and 0.005% Tween) containing 15 nM of Terbium-Streptavidin (Invitrogen, catalog #PV3577) and 900 nM of Bodipy-GDP (Invitrogen, catalog #G22360) and incubated at room temperature for six hours. It should be noted that this preformed TR-FRET complex for each of the RAS protein were made ahead of time, aliquoted and stored at −80° C. until the day of the experiment.
(§5) Each test compound (10 mM stock in DMSO) is diluted in DMSO to make a final-10-point, 3-fold dilution and is acoustically dispensed into a 384-well assay plate (Corning, catalog #3820) using an Echo 550 (Labcyte). Each well of the assay plate receives 3 μL of a specific 3×RAS preformed TR-FRET complex and 3 μL of Assay Buffer and is incubated at room temperature for 60 minutes (preincubation time). Each well then receives 3 μL of 3×recombinant human SOS protein and GTP (Sigma, G8877) in Assay Buffer and is incubated at room temperature for 30 minutes (G13D), 60 minutes (KRAS WT/G12C/D, H/NRAS) or 90 minutes for G12V. The final reaction in each well of 9 μL consists of 3 mM GTP, specific Ras and SOS proteins in the following concentrations: KRAS-G12C/SOS=3 nM/40 nM, KRAS-WT and G12D/SOS=1 nM/40 nM, KRAS-G12V/SOS=1.25 nM/160 nM. KRAS-G13D/SOS=1.25 nM/0 nM, HRAS and NRAS=1.25 nM/40 nM.
(§6) The time-resolved fluorescence resonance energy transfer (TR-FRET) signal is measured on an Envision (PerkinElmer) plate reader: Excitation filter=340 nm; emission 1=495 nm; emission2=520 nm; dichroic mirror=D400/D505; delay time=[…]. The signal of each well is determined as the ratio of the emission at 520 nm to that at 495 nm. Percent effect of each well is determined after normalization to control wells containing DMSO (no effect) or a saturating concentration of inhibitor (max effect). The apparent effect as a function of compound concentration is fit to a four-parameter logistic equation.

The next test has as its target KRAS-G12V (Homo sapiens, UniProt P01116, G12V). Description: SOS-catalyzed nucleotide exchange assay (Procedure A, TR-FRET), KRAS-G12V. The class given is biochemical. The essentials: as §1
A further test deals with AsPC-1 cells. Description: Cellular phospho-ERK assay, AsPC-1 cells (homozygous KRAS-G12D). Format: cell-based. The following applies: Homo sapiens, read-out: AsPC1 pERK IC50. An outline of the steps:
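Overnight-plated cells on collagen received test compound (up to 30 μM final, threefold steps, ten concentrations) for two hours. After lysis at room temperature, phosphorylated and total ERK were quantified together by Alpha SureFire, and IC50 is based on the phospho-to-total signal ratio.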

For test [1], the target named is KRAS-G12C (C51S/C80L/C118S) (Homo sapiens, UniProt P01116, C118S/C51S/C80L/G12C). As to the kind of experiment: SOS-catalyzed nucleotide exchange assay (Procedure A, TR-FRET), KRAS-G12C. The class given is biochemical.
Sequence of KRAS-G12C (C51S/C80L/C118S) (P01116 with tags, fused parts or gaps isoform P01116-2 G12C/C51S/C80L/C118S): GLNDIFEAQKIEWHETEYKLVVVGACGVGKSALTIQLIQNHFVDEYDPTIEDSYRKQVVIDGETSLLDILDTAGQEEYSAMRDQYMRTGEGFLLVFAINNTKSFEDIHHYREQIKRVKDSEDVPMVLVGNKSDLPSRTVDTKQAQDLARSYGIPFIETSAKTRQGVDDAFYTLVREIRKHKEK
From the text: as §2, §3, §4, §5, §6

A further test has as its target KRAS-G12D (Homo sapiens, UniProt P01116, G12D). Description: SOS-catalyzed nucleotide exchange assay (Procedure A, TR-FRET), KRAS-G12D. Format: biochemical. An outline of the steps: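 Signal ratio (520/495 nm, excitation 340 nm) reports Bodipy-GDP retention on biotinylated RAS after SOS-catalyzed exchange with 3 mM GTP. SOS was 40 nM, except 160 nM for G12V. Room-temperature exchange lasted 60 min (90 min for G12V), following a 60 min compound preincubation.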

Where [2] appears, read: nucleotide exchange, read-out: KRAS WT GNE IC50.
The mark [3] stands for this setting: nucleotide exchange, Procedure A, read-out: KRAS G13D GNE IC50.
[4] abbreviates: nucleotide exchange, read-out: KRAS G12V GNE IC50.
Where [5] appears, read: nucleotide exchange, Procedure A, read-out: KRAS G12C GNE IC50.
The mark [6] stands for this setting: nucleotide exchange, read-out: KRAS G12D GNE IC50.
Setting [7] is: ASPC1, 2 h, 2 hours compound incubation.

pIC50: −log10 of the molar value. Read-outs that look alike come from different tables or passages of the source.

Sequence of KRAS-G12V (P01116 with tags, fused parts or gaps isoform P01116-2 G12V): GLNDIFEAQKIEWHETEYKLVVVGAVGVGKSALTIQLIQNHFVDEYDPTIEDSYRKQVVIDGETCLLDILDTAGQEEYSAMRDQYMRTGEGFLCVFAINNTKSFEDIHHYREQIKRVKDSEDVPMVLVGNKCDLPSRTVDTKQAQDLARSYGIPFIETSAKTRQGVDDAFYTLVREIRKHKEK
Sequence of KRAS-G13D (P01116 with tags, fused parts or gaps isoform P01116-2 G13D): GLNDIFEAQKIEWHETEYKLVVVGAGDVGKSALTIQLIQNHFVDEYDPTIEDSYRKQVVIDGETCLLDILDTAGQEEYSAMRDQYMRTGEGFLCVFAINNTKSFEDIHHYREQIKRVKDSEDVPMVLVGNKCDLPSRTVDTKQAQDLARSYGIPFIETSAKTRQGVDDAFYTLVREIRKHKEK
Sequence of KRAS-G12D (P01116 with tags, fused parts or gaps isoform P01116-2 G12D): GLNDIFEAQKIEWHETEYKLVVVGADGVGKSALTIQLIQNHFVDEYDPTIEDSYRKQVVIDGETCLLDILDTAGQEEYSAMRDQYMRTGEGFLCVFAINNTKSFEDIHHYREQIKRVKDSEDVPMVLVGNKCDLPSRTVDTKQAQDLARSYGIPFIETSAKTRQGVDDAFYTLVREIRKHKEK

Consider `Cc1cc2[nH]ncc2c(-c2nccc3c2[se]c2nc(OC[C@@]45CCCN4C[C@H](F)C5)nc(N4CCOC[C@@](C)(O)C4)c23)c1C(F)(F)F` [Ex-288, (6S)-4-(2-(((2R,7aS)-2-fluorotetrahydro-1H-pyrrolizin-7a(5H)-yl)methoxy)-8-(6-methyl-5-(trifluoromethyl)-1H-indazol-4-yl)pyrido[4′,3′:4,5]selenopheno[2,3-d]pyrimidin-4-yl)-6-methyl-1,4-oxazepan-6-ol], for which the negative-log IC50 (pIC50) was 7.16 against KRAS-WT (KRAS WT GNE IC50, nucleotide exchange); 7.29 against KRAS-G13D; 7.59 on KRAS-G12V (KRAS G12V GNE IC50, nucleotide exchange); 6.43 with AsPC-1 cells (ASPC1, KRAS-G12D, 2 hours); 7.66 in test [1]; 7.46 against KRAS-G12D (KRAS G12D GNE IC50, nucleotide exchange).

On to `CN(C)C[C@@]1(COc2nc(N3CCOC[C@@](C)(O)C3)c3c(n2)oc2c(-c4c(C5CC5)c(Cl)cc5[nH]ncc45)nccc23)CC1(F)F` [Ex-294, (6S)-4-(8-(6-chloro-5-cyclopropyl-1H-indazol-4-yl)-2-(((R)-1-((dimethylamino)methyl)-2,2-difluorocyclopropyl)meth-oxy)pyrido[4′,3′:4,5]furo[2,3-d]pyrimidin-4-yl)-6-methyl-1,4-oxazepan-6-ol], for which the pIC50 at KRAS-WT (setting [2]) was 6.58; on KRAS-G13D (setting [3]), 6.98; at KRAS-G12V (setting [4]) it was 6.90; in the test on AsPC-1 cells (ASPC1, 2 h, KRAS-G12D, 2 hours) it was 6.53; in test [1] (setting [5]), 7.52; at KRAS-G12D (setting [6]) it was 6.95.

Consider `CC1(O)COCCN(c2nc(OCC34CCCN3CC(F)C4)nc3sc4c(-c5c(C6CC6)c(F)cc6[nH]ncc56)nccc4c23)C1` [Ex-47, (6S)-4-(8-(5-cyclopropyl-6-fluoro-1H-indazol-4-yl)-2-(((2R,7aS)-2-fluorotetrahydro-1H-pyrrolizin-7a(5H)-yl)methoxy)pyrido[4′,3′:4,5]thi-eno[2,3-d]pyrimidin-4-yl)-6-methyl-1,4-oxazepan-6-ol], for which the negative logarithm of the IC50 (pIC50) at KRAS-WT (setting [2]) is 6.99; at KRAS-G13D (setting [3]), 7.49; on KRAS-G12V (setting [4]) it was 7.26; in the test with AsPC-1 cells (ASPC1, 2 h, KRAS-G12D, 2 hours), 6.41; in test [1] (setting [5]), 7.75; at KRAS-G12D (setting [6]), 7.49.

Take `C=C(C)c1c(C)cc2[nH]ncc2c1-c1nccc2c1oc1nc(OC[C@]3(CN(C)C)CC3(F)F)nc(N3CCOC[C@@](C)(O)C3)c12` [Ex-293, (6S)-4-(2-(((R)-1-((dimethylamino)methyl)-2,2-difluorocyclopropyl)meth-oxy)-8-(6-methyl-5-(prop-1-en-2-yl)-1H-indazol-4-yl)pyrido[4′,3′:4,5]furo[2,3-d]pyrimidin-4-yl)-6-methyl-1,4-oxazepan-6-ol]: the pIC50 at KRAS-WT (setting [2]) is 6.34; at KRAS-G13D (setting [3]), 6.53; at KRAS-G12V (setting [4]), 6.69; in the test on AsPC-1 cells (ASPC1, 2 h, KRAS-G12D, 2 hours) it was 6.00; in test [1] (setting [5]) it was 6.87; at KRAS-G12D (setting [6]) it was 6.83.

Consider `Cc1cc2[nH]ncc2c(-c2nccc3c2sc2nc(OC[C@@]45CCCN4C[C@H](F)C5)nc(N4CCOC[C@@](C)(O)C4)c23)c1-c1cccs1` [Ex-138, (6S)-4-(2-(((2R, 7aS)-2-fluorotetra-hydro-1H-pyrrolizin-7a(5H)-yl)methoxy)-8-(6-methyl-5-(thio-phen-2-yl)-1H-ind-azol-4-yl)pyrido [4′,3′:4,5]thieno[2,3-d]pyrimidin-4-yl)-6-methyl-1,4-oxaze-pan-6-ol], for which the pIC50 on KRAS-WT (setting [2]) is 6.40; on KRAS-G13D (setting [3]) it was 6.47; on KRAS-G12V (setting [4]), 6.61; with AsPC-1 cells (setting [7]), 6.15; in test [1] (setting [5]) it was 6.92; at KRAS-G12D (setting [6]) it was 6.82.

In the case of `Cc1cc2[nH]ncc2c(-c2nccc3c2sc2nc(OC[C@@]45CCCN4C[C@H](F)C5)nc(N4CCOC[C@@](C)(O)C4)c23)c1C1CCCC1` [Ex-147, (6S)-4-(8-(5-cyclo-pentyl-6-methyl-1H-indazol-4-yl)-2-(((2R,7aS)-2-fluoro-tetrahydro-1H-pyr-rolizin-7a(5H)-yl)-methoxy)pyrido [4′,3′:4,5]thieno[2,3-d]pyrimidin-4-yl)-6-methyl-1,4-oxaze-pan-6-ol], the pIC50 on KRAS-WT (setting [2]) was 6.17; at KRAS-G13D (setting [3]), 6.03; on KRAS-G12V (setting [4]) it was 6.53; in the test with AsPC-1 cells (setting [7]), 5.90; in test [1] (setting [5]), 6.36; at KRAS-G12D (setting [6]) it was 6.55.

For the molecule `Cc1cc2[nH]ncc2c(-c2nccc3c2oc2nc(OC[C@]4(CN(C)C)CC4(F)F)nc(N4CCOC[C@@](C)(O)C4)c23)c1C(F)F` [Ex-292, (6S)-4-(8-(5-(difluoromethyl)-6-methyl-1H-indazol-4-yl)-2-(((R)-1-((dimethylamino)methyl)-2,2-difluorocyclopropyl)meth-oxy)pyrido[4′,3′:4,5]furo[2,3-d]pyrimidin-4-yl)-6-methyl-1,4-oxazepan-6-ol], the negative logarithm of the IC50 (pIC50) was 6.22 on KRAS-WT (setting [2]); 6.51 at KRAS-G13D (setting [3]); 6.87 at KRAS-G12V (setting [4]); 5.64 in the test on AsPC-1 cells (ASPC1, 2 h, KRAS-G12D, 2 hours); 7.11 in test [1] (setting [5]); 6.76 at KRAS-G12D (setting [6]).

Take `Cc1cc2[nH]ncc2c(-c2nccc3c2sc2nc(OC[C@@]45CCCN4C[C@H](F)C5)nc(N4CCOC[C@@](C)(O)C4)c23)c1-c1ccco1` [Ex-146, (6S)-4-(2-(((2R, 7aS)-2-fluorotetra-hydro-1H-pyrrol-izin-7a(5H)-yl)meth-oxy)-8-(5-(furan-2-yl)-6-methyl-1H-indazol-4-yl)pyrido [4′,3′:4,5]thieno[2,3-d]pyrimidin-4-yl)-6-methyl-1,4-oxaze-pan-6-ol]: the negative-log IC50 (pIC50) at KRAS-WT (setting [2]) is 7.23; at KRAS-G13D (setting [3]), 7.53; at KRAS-G12V (setting [4]), 7.66; in the test with AsPC-1 cells (setting [7]), 6.82; in test [1] (setting [5]), 7.11; at KRAS-G12D (setting [6]), 7.81.

These data come from patent US20260176289A1, “SMALL MOLECULE INHIBITORS OF KRAS PROTEINS” (Merck Sharp & Dohme LLC, priority 2022, published 2026).
